Data taken from patent publication US20150079183A1, “Lercanidipine Hydrochloride and Losartan Potassium Compound Preparation and Preparation Method Thereof” (Zhaoke Pharmaceutical (Hefei) Company Limited, priority 2012, published 2015).
Structures can show the parent of a compound that is named as a salt.

Tests used:
[1] = tested on: patients with light and moderate diastolic hypertension; experiment: Clinical trial study of Example 6 (compound preparation 7.5 mg lercanidipine + 20 mg losartan vs single drugs); assay type: in vivo, human; settings: for Diastolic blood pressure Value changed / Systolic blood pressure Value changed: before treatment vs end of week 12; for Diastolic blood pressure Before dosing / Systolic blood pressure Before dosing: before treatment, mean ± SD
Excerpt: 1.1 Selection of cases: patients aged from 18-75 years old with light and moderate diastolic hypertension (supine diastolic blood pressure 95-115 mmHg), excluding severe hypertension (diastolic blood pressure >115 mmHg), secondary hypertension, heart disease, myocardial infarction, shock, transient ischemic stroke within the past 3 months, sinus bradycardia or sinus tachycardia, hypovolemia, liver and kidney dysfunction and diabetes. After 14-20 days of washing stage, entering 14-30 days of introduction stage, during which single blinded placebos were taken. Blood pressures were measured in a return visit in every 7-10 days. Suitable patients were divided into treatment groups according to random principle.
1.2 Trial method: there were totally 359 patients enrolled, and 305 patients entered the introduction stage and 266 entered the assessment stage.
(§1) 1.3 Observation indicators and method: blood pressures were measured as per the requirements of international standard. A settled physician would follow up once a week and visited from 9:00 to 11:00. Every time heart rate and sitting blood pressure were measured 3 times and the 2 greater values were taken to calculate the mean value.
(§2) 1.4 Laboratory examinations: electrocardiogram, blood and urine routine, liver and kidney function, blood sugar, blood lipid and blood electrolyte examinations were performed before and after overall patient trial.
1.5 Curative effect assessment: according to the regulations of The National Cardiovascular Epidemiology and Population Prevention report meeting summary in 1979: (1) markedly effective: diastolic blood pressure was decreased by ≧10 mmHg, and was decreased to normal (<90 mmHg) or decreased by more than 20 mmHg; (2) effective: diastolic blood pressure was decreased by 10-19 mmHg or was decreased by <10 mmHg, but reached normal; (3) failure: not reached above criteria.
(§3) 1.6 Data processing and statistical method: the measurement data were calculated as mean±standard variation. Paired t-test was used to compare the quantitative indicators before and after the 4 treatment patterns. Chi-square test was used to compare the difference before and after administration.

[2] = tested on: patients with light and moderate diastolic hypertension; experiment: Clinical trial study of Example 5 (compound preparation 5 mg lercanidipine + 20 mg losartan vs single drugs and amlodipine); assay type: in vivo, human; settings: for Diastolic blood pressure Value changed / Systolic blood pressure Value changed: before treatment vs end of week 12; for Diastolic blood pressure Before dosing / Systolic blood pressure Before dosing: before treatment, mean ± SD; for Diastolic blood pressure After dosing / Systolic blood pressure After dosing: once daily
Procedure: After 14-20 days of washing stage, entering 14-30 days of introduction stage, during which single blinded placebos were taken. Blood pressures were measured in a return visit in every 7-10 days. Suitable patients were divided into treatment groups according to random principle.
as §1, with “method: blood,” for “method: blood”
as §2, §3

Compound | cases occurring gastrointestinal tract symptoms ([1]; 12 weeks of treatment) | Diastolic blood pressure Value changed [1] [mmHg] | Systolic blood pressure Value changed [1] [mmHg] | Diastolic blood pressure Before dosing [1] [mmHg] | Systolic blood pressure Before dosing [1] [mmHg] | Diastolic blood pressure After dosing ([1]; end of week 12 of treatment) [mmHg] | Systolic blood pressure After dosing ([1]; end of week 12 of treatment) [mmHg] | cases occurring gastrointestinal tract symptoms ([2]; 12 weeks of treatment) | Diastolic blood pressure Value changed [2] [mmHg] | Systolic blood pressure Value changed [2] [mmHg] | Diastolic blood pressure Before dosing [2] [mmHg] | Systolic blood pressure Before dosing [2] [mmHg] | Diastolic blood pressure After dosing ([2]; end of week 12 of treatment) [mmHg] | Systolic blood pressure After dosing ([2]; end of week 12 of treatment) [mmHg] | other results
COC(=O)C1=C(C)NC(C)=C(C(=O)OC(C)(C)CN(C)CCC(c2ccccc2)c2ccccc2)C1c1cccc([N+](=O)[O-])c1 (stereo not shown) [lercanidipine hydrochloride] | one | 16 ± 6 | 19 ± 7 | 106 ± 8 | 156 ± 8 | 89 ± 7 | 136 ± 7 | two | 13 ± 8 | 19 ± 3 | 104 ± 9 | 152 ± 9 | 88 ± 7 | 139 ± 8 | cases of dizziness ([1]; 12 weeks of treatment): one; Effective rate (total effective rate for decreasing blood pressure) ([1]; end of week 12 of treatment, criteria of b91, hydrochloride): 71.6%; Effective rate (total effective rate for decreasing blood pressure) ([1]; end of week 12 of treatment; criteria of b91; listed as 2), hydrochloride): 71.6%; cases of dizziness ([2]; 12 weeks of treatment): one; Effective rate (total effective rate for decreasing blood pressure) ([2]; end of week 12 of treatment, criteria of b72, hydrochloride): 70.8%; Effective rate (total effective rate for decreasing blood pressure) ([2]; end of week 12 of treatment; criteria of b72; listed as 2), hydrochloride): 70.8%
CCCCc1nc(Cl)c(CO)n1Cc1ccc(-c2ccccc2-c2nn[nH]n2)cc1 [losartan] | two | 14 ± 5 | 17 ± 5 | 102 ± 6 | 152 ± 7 | 83 ± 8 | 139 ± 5 | four | 11 ± 5 | 15 ± 9 | 100 ± 5 | 152 ± 9 | 81 ± 9 | 138 ± 6 | cases of dry mouth ([1]; 12 weeks of treatment): one; Effective rate (total effective rate for decreasing blood pressure) ([1]; end of week 12 of treatment; criteria of b91; listed as 3)): 77.3%; Effective rate (total effective rate for decreasing blood pressure) ([1]; end of week 12 of treatment, criteria of b91, listed as lorsartan): 77.3%; cases of dry mouth ([2]; 12 weeks of treatment): one; Effective rate (total effective rate for decreasing blood pressure) ([2]; end of week 12 of treatment; criteria of b72; listed as 3)): 75.1%; Effective rate (total effective rate for decreasing blood pressure) ([2]; end of week 12 of treatment, criteria of b72, listed as lorsartan): 75.1%
